“And” between values parts separate entries of the source, which are not always exact repeats. Equal entries are not always repeated.
Tests used:
rat UT-A1 = target: T1, rat UT-A1 (Rattus norvegicus, UniProt Q62668); assay: UT-A1 inhibition, fluorescence plate reader assay in MDCK cells expressing UT-A1, AQP1 and YFP-H148Q/V163S; assay type: cell-based
T1 construct: expressed in transfected cells; host or cells: MDCK cells stably co-expressing rat UT-A1, human AQP1 and YFP-H148Q/V163S
T1 sequence (Q62668 1-929): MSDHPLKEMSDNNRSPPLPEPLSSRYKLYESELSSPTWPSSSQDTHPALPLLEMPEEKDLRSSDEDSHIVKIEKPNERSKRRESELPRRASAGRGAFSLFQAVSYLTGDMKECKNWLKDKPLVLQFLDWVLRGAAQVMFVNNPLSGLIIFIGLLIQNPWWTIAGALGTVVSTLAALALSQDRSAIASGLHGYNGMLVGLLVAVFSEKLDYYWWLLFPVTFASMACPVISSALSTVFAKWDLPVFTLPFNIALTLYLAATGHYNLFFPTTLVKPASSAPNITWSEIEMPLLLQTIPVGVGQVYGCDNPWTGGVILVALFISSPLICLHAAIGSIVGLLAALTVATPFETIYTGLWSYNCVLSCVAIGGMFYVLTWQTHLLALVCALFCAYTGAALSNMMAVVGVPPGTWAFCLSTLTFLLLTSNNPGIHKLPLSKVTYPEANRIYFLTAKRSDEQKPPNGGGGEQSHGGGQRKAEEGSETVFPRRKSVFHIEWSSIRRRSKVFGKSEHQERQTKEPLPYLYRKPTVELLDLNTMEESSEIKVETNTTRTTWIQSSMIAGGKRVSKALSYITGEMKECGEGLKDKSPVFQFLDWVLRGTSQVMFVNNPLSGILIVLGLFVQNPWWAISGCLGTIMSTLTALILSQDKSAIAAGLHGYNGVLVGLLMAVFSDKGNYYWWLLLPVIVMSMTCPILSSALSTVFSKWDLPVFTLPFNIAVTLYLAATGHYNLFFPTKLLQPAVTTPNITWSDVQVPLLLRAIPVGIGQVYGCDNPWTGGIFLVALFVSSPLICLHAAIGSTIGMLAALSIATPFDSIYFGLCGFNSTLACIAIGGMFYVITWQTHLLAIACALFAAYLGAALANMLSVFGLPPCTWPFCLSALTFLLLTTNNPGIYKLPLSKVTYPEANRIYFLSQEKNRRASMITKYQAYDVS
Method: Primary screening was done using a collection of 50,000 chemically diverse, drug-like compounds from ChemDiv (San Diego, Calif.). For analysis of structure-activity relationships, >300 commercially available analogs (ChemDiv and Asinex, Winston-Salem, N.C.) were tested. Cells were plated on black 96-well Costar microplates with clear plastic bottoms (Corning, Corning, N.Y.) at 15,000 cells/well and cultured for 24 h at 37° C. before assay. Microplates containing cultured cells were washed twice with PBS and 150 μL of test compound (25 μM final) in PBS was added. Eighty wells contained test compounds, and the first and last columns of each plate contained negative (dimethyl sulfoxide, DMSO) and positive (0.35 mM phloretin) controls. The assays were done on a plate reader (Tecan Trading AG, Switzerland) equipped with a custom YFP filter set. Each assay consisted of a continuous 15-s read (5 Hz) in which 50 μL of 3.2 M urea in PBS was injected at 1 s (at 130 μL/s) to give a 800 mM final urea gradient.
MDCK cells stably expressing rat UT-A1 (see, e.g., Frohlich et al. (2006) Am J Physiol Cell Physiol. 291, C600-D606), YFP-H148Q/V163 S (see, e.g., Galietta, et al. (2001) FEBS Lett. 499, 220-224) and human AQP1, as described previously (see, e.g., Esteva-Font et al. (2013) Chem Biol. 20, 1235-1244), were grown in Dulbecco's modified Eagle medium (DMEM) containing 10% fetal bovine serum (FBS), penicillin G (100 U/mL), streptomycin (100 μg/mL), zeocin (500 μg/mL), geneticin (600 μg/mL) and Hygromycin (500 μg/mL) at 37° C., 5% CO2. A Cell Clone with bright YFP fluorescence and relatively low AQP1 expression was used for the screen to maximize dynamic range.
In order to identify UT-A inhibitors suitable for testing in rats, a collection of 50,000 synthetic small molecules was screened. As diagrammed in FIG. 1A (top), the fluorescence cell-based screen utilized MDCK cells stably rat expressing UT-A1, water channel AQP1 and the cytoplasmic chloride-sensing fluorescent protein YFP-H148Q/V163S. As described and validated previously (see, e.g., Esteva-Font et al. (2013) Chem Biol. 20, 1235-1244), extracellular addition of urea results in osmotic water efflux and cell shrinking, which increases intracellular chloride concentration and reduces YFP fluorescence. Urea entry results in increasing YFP fluorescence as cells re-swell. Inhibitors of UT-A1 urea transport produce a lesser reduction in fluorescence and slowed recovery.

MDCK cells = assay: Cell toxicity, Alamar blue assay; assay type: cell-based, canine; conditions: 24 h, up to 25 μM
Method: MDCK cells on black 96-well Costar microplates with clear plastic bottoms were cultured for 24 h at 37° C. and incubated with test compounds (0 to 25 μM) for 24 h. Cell viability was assayed using AlamarBlue (Pierce, Rockford, Ill.) in which the reagent was added to each well, incubated for 30 min, and absorbance measured at 590 nm. For short-circuit current measurement, snapwell inserts containing MDCK cells were mounted on Ussing chambers. Test compounds (20 μM) were incubated with MDCK cells at both apical and basolateral sides for 10 min at 37° C. prior to addition of 20 μM forskolin and then 100 μM ATP. The apical and basolateral chambers contained identical solutions: 120 mM NaCl, 5 mM KCl, 1 mM MgCl2, 1 mM CaCl2, 5 mM HEPES, 25 mM NaHCO3 and 10 mM glucose. Solutions were bubbled with 5% CO2/95% O2 and maintained at 37° C. […]
Compound toxicity was evaluated by compound incubation for 24 h with MDCK cell cultures followed by Alamar blue assay. […] To assess potential ion channel off-target effects, short-circuit current was measured in MDCK cells in response to cAMP (forskolin) and calcium (ATP) agonists (FIG. 5C, right), which depends on the actions of multiple anion (CFTR, calcium-activated chloride channels) and cation (K^+, Na^+) channels.

Structure (SMILES)	IC50 (rat UT-A1)	toxicity (MDCK cells)
CC(=O)Nc1ccc(-c2csc(-c3c[nH]c4ccccc34)n2)cc1 [UTA1inh-E02, N-(4-(2-(1H-indol-3-yl)thiazol-4-yl)phenyl)acetamide]	~1 µM and 1 µM	little toxicity
COc1ccc(C)cc1S(=O)(=O)Nc1ccc(Cl)c(N2CCCS2(=O)=O)c1 [UTA1inh-F11, N-[4-Chloro-3-(1,1-dioxido-1,2-thiazolidin-2-yl)phenyl]-2-methoxy-5-methylbenzene-sulfonamide]	1 µM	little toxicity

From patent publication US11123340B2, “Small-molecule UT-A-selective urea transport inhibitors” (The Regents of the University of California, priority 2014, dated 2021)
